One experiment addresses T1, human recombinant HDAC6 (Homo sapiens, UniProt Q9UBN7).
T1 construct: purchased Calbiochem 382180
T1 sequence (Q9UBN7 1-1215): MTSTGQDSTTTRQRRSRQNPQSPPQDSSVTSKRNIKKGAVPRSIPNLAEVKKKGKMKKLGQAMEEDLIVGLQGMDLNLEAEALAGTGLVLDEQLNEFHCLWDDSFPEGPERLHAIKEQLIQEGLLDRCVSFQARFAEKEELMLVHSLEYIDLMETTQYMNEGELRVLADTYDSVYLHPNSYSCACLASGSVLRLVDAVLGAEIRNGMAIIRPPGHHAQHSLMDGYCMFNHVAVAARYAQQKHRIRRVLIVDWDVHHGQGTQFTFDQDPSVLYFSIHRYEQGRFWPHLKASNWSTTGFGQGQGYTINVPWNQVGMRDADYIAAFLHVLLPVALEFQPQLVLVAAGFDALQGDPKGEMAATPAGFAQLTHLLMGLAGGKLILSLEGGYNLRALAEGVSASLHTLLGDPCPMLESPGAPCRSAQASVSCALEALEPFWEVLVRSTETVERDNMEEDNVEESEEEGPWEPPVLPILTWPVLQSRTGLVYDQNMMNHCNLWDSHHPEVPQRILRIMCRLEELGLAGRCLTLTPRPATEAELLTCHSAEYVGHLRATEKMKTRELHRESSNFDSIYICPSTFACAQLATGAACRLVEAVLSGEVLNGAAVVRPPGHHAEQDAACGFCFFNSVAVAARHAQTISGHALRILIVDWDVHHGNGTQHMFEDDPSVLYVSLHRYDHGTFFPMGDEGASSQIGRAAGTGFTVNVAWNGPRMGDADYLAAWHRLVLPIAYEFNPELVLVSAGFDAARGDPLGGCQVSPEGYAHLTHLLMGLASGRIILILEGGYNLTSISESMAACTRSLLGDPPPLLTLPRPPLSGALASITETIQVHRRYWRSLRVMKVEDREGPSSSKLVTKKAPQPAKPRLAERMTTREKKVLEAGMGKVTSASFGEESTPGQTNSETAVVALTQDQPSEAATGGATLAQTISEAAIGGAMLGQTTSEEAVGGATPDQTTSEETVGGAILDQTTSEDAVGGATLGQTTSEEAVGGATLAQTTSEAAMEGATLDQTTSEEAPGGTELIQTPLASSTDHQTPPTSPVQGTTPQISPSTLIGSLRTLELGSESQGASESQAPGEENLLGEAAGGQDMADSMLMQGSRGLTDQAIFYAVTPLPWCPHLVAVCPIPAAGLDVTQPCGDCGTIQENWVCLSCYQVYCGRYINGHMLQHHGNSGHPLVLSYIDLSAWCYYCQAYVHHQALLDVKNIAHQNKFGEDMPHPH
Put plainly: HDAC6 enzyme activity inhibition assay (HDAC Fluorimetric Drug Discovery Kit). The class given is biochemical. Particulars: for HDAC6 selectivity (fold): HDAC1 vs HDAC6; for IC50: same protocol as the HDAC1 enzyme activity test. The gist of the method:
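First, compound in 5-fold dilution steps is combined with 0.3 μg enzyme and 10 μM Fluor de Lys-SIRT1 substrate. After 60 min at 30° C, developer is added for 30 min. Fluorescence at Ex 360/Em 460 then gives IC50 values.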

Another experiment addresses T2, human recombinant HDAC1 (Homo sapiens, UniProt Q13547).
T2 construct: purchased Enzo Life Science BML-SE456
Put plainly: HDAC1 enzyme activity inhibition assay (HDAC Fluorimetric Drug Discovery Kit). In kind it is biochemical. The conditions noted are these: 0.3 μg enzyme, 10 μM substrate, 30° C., 60 minutes. Here is the method: In order to examine the HDAC6 selectivity of the compounds of formula I of the present invention by HDAC1 and HDAC6 enzymatic activity inhibition assays, an experiment was performed using a conventional substance as a control.
HDAC enzyme activity was measured using a HDAC Fluorimetric Drug Discovery Kit (BML-AK511, 516, Enzo Life Science). For the HDAC1 enzyme activity test, human recombinant HDAC1 (BML-SE456) was used as an enzyme source, and Fluor de Lys®-“SIRT1 (BNL-KI177) was used as a substrate. A 5-fold dilution of the compound was seeded into a 96-well plate, and then 0.3 μg of the enzyme and 10 μM of the substrate were added to each well of the plate and allowed to react at 30° C. for 60 minutes. Then, Fluor de Lys®-Developer II (BML-KI176) was added thereto and allowed to react for 30 minutes, after which the fluorescence value (Ex 360, Em 460) was measured using a multi-plate reader (Flexstation 3, Molecular Device). The HDAC6 enzyme was tested using human recombinant HDAC6 (382180) (Calbiochem) according to the same protocol as the HDAC1 enzyme activity test method. Based on the resulting values, each IC50 value was calculated using GraphPad Prism4.0 program.

T2 sequence (Q13547 whole entry): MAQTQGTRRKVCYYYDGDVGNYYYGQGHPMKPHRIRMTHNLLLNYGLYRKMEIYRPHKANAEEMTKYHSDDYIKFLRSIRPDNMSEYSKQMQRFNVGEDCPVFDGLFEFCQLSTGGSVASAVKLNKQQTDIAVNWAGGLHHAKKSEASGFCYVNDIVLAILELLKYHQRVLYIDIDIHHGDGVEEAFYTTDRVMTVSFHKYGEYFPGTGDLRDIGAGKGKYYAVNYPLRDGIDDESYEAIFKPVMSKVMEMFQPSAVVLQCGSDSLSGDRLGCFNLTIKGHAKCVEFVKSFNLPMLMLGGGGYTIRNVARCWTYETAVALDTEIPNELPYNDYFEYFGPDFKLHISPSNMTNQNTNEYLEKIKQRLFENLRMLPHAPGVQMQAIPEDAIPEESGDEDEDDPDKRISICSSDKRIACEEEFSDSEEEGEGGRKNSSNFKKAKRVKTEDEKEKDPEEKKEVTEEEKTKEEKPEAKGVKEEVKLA

Regarding `Cc1cccc(N(Cc2ccc(-c3nnc(C(F)F)o3)cn2)S(=O)(=O)C2CCN([C@H]3CC[C@H](C(F)(F)F)CC3)CC2)c1` [Compound 11690, N-((5-(5-(difluoromethyl)-1,3,4-oxadiazol-2-yl)pyridin-2-yl)methyl)-N-(m-tolyl)-1-((1r,4r)-4-(trifluoromethyl)cyclohexyl)piperidine-4-sulfonamide], the “HDAC6 selectivity (fold)” value at human recombinant HDAC6 turned out to be 244 fold. For the same molecule, the half-maximal inhibitory concentration (IC50) was 224 nM at human recombinant HDAC6 and 54800 nM at human recombinant HDAC1.

In the case of `CS(=O)(=O)N1CC(N2CCC(S(=O)(=O)N(Cc3ccc(-c4nnc(C(F)F)o4)cn3)c3ccc(F)c(Cl)c3)CC2)C1` [Compound 11503, N-(3-chloro-4-fluorophenyl)-N-((5-(5-(difluoromethyl)-1,3,4-oxadiazol-2-yl)pyridin-2-yl)methyl)-1-(1-(methylsulfonyl)azetidin-3-yl)piperidine-4-sulfonamide], at human recombinant HDAC6, the “HDAC6 selectivity (fold)” value was found to be 4792 fold and the IC50 worked out at 15 nM. In addition, the IC50 on human recombinant HDAC1 was 71900 nM.

Consider `CCS(=O)(=O)N(Cc1ccc(-c2nnc(C(F)F)o2)cn1)c1cc(F)cc(F)c1` [Compound 11463, N-((5-(5-(difluoromethyl)-1,3,4-oxadiazol-2-yl)pyridin-2-yl)methyl)-N-(3,5-difluorophenyl)ethanesulfonamide], for which, on human recombinant HDAC6, the “HDAC6 selectivity (fold)” value is on record as 2789 fold and the IC50 turned out to be 8 nM. In addition, the IC50 at human recombinant HDAC1 was 22300 nM.

With `O=S(=O)(CCN1CCN(CCCO)CC1)N(Cc1ccc(-c2nnc(C(F)F)o2)cc1)c1ccccc1` [Compound 11679, N-(4-(5-(difluoromethyl)-1,3,4-oxadiazol-2-yl)benzyl)-2-(4-(3-hydroxypropyl)piperazin-1-yl)-N-phenylethane-1-sulfonamide], the “HDAC6 selectivity (fold)” value at human recombinant HDAC6 turned out to be 2666 fold. The IC50 came out at 23 nM on human recombinant HDAC6 and 61300 nM at human recombinant HDAC1.

Consider `CS(=O)(=O)N(Cc1ccc(-c2nnc(C(F)(F)F)o2)cn1)c1ccccc1` [Compound 11171, N-phenyl-N-((5-(5-(trifluoromethyl)-1,3,4-oxadiazol-2-yl)pyridin-2-yl)methyl)methanesulfonamide], for which the “HDAC6 selectivity (fold)” value on human recombinant HDAC6 is on record as 1267 fold. In addition, the IC50 at human recombinant HDAC6 was 21 nM; at human recombinant HDAC1, 26600 nM.

For `CS(=O)(=O)N(Cc1ccc(-c2nnc(C(F)F)o2)c(F)c1)c1ccccc1` [Compound 11184, N-(4-(5-(difluoromethyl)-1,3,4-oxadiazol-2-yl)-3-fluorobenzyl)-N-phenylmethanesulfonamide], at human recombinant HDAC6, the “HDAC6 selectivity (fold)” value is 63 fold and the IC50 was 36 nM. The IC50 on human recombinant HDAC1 came to 2270 nM.

As for `CCS(=O)(=O)N(Cc1ccc(-c2nnc(C(F)F)o2)cn1)c1ccc(F)c(F)c1` [Compound 11462, N-((5-(5-(difluoromethyl)-1,3,4-oxadiazol-2-yl)pyridin-2-yl)methyl)-N-(3,4-difluorophenyl)ethanesulfonamide], on human recombinant HDAC6, the “HDAC6 selectivity (fold)” value amounted to 2635 fold and the IC50 amounted to 8 nM. Further, the IC50 on human recombinant HDAC1 is 21100 nM.

As for `CS(=O)(=O)N(Cc1ncc(-c2nnc(C(F)(F)F)o2)cn1)c1ccccc1` [Compound 11565, N-phenyl-N-((5-(5-(trifluoromethyl)-1,3,4-oxadiazol-2-yl)pyrimidin-2-yl)methyl)methanesulfonamide], the “HDAC6 selectivity (fold)” value at human recombinant HDAC6 was determined as 312 fold. The IC50 amounted to 149 nM at human recombinant HDAC6 and 46500 nM at human recombinant HDAC1.

`Cc1cccc(N(Cc2ccc(-c3nnc(C(F)F)o3)cn2)S(=O)(=O)C2CCN(C3CCC(F)(F)CC3)CC2)c1` [Compound 11687, 1-(4,4-difluorocyclohexyl)-N-((5-(5-(difluoromethyl)-1,3,4-oxadiazol-2-yl)pyridin-2-yl)methyl)-N-(m-tolyl)piperidine-4-sulfonamide]: at human recombinant HDAC6, the “HDAC6 selectivity (fold)” value stood at 741 fold and the IC50 was 107 nM. Also, on human recombinant HDAC1, the IC50 is 79100 nM.

For `O=S(=O)(C1CCN(C2COC2)CC1)N(Cc1ccc(-c2nnc(C(F)F)o2)cn1)c1ccc(F)c(Cl)c1` [Compound 11501, N-(3-chloro-4-fluorophenyl)-N-((5-(5-(difluoromethyl)-1,3,4-oxadiazol-2-yl)pyridin-2-yl)methyl)-1-(oxetan-3-yl)piperidine-4-sulfonamide], on human recombinant HDAC6, the “HDAC6 selectivity (fold)” value is 3779 fold and the IC50 was 15 nM. In addition, the IC50 at human recombinant HDAC1 turned out to be 56700 nM.

In the case of `Cc1cccc(N(Cc2ccc(-c3nnc(C(F)F)o3)cn2)S(=O)(=O)C2CCN([C@H]3CC[C@@H](F)CC3)CC2)c1` [Compound 11689, N-((5-(5-(difluoromethyl)-1,3,4-oxadiazol-2-yl)pyridin-2-yl)methyl)-1-((1s,4s)-4-fluorocyclohexyl)-N-(m-tolyl)piperidine-4-sulfonamide], the “HDAC6 selectivity (fold)” value at human recombinant HDAC6 is 429 fold. For the same molecule, the IC50 on human recombinant HDAC6 was 46.6 nM; on human recombinant HDAC1, 20000 nM.

As to `O=S(=O)(C1CCOCC1)N(Cc1ccc(-c2nnc(C(F)(F)F)o2)cn1)c1ccccc1` [Compound 11431, N-phenyl-N-((5-(5-(trifluoromethyl)-1,3,4-oxadiazol-2-yl)pyridin-2-yl)methyl)tetrahydro-2H-pyran-4-sulfonamide], on human recombinant HDAC6, the “HDAC6 selectivity (fold)” value is 453 fold and the IC50 was 62 nM. Further, the IC50 on human recombinant HDAC1 was determined as 28100 nM.

Take `CS(=O)(=O)N(Cc1ccc(-c2nnc(C(F)(F)F)o2)cc1F)c1ccc2c(c1)OCO2` [Compound 11226, N-(benzo[d][1,3]dioxol-5-yl)-N-(2-fluoro-4-(5-(trifluoromethyl)-1,3,4-oxadiazol-2-yl)benzyl)methanesulfonamide]: at human recombinant HDAC6, the “HDAC6 selectivity (fold)” value was 297 fold and the IC50 came to 39 nM. Moreover, the IC50 on human recombinant HDAC1 is 11600 nM.

With `Cc1cccc(N(Cc2ccc(-c3nnc(C(F)(F)F)o3)cc2F)S(C)(=O)=O)c1` [Compound 11177, N-(2-fluoro-4-(5-(trifluoromethyl)-1,3,4-oxadiazol-2-yl)benzyl)-N-(m-tolyl)methanesulfonamide], on human recombinant HDAC6, the “HDAC6 selectivity (fold)” value is given as 332 fold and the IC50 is 57 nM. Moreover, on human recombinant HDAC1, the IC50 is 18900 nM.

With `CCS(=O)(=O)N(Cc1ccc(-c2nnc(C(F)(F)F)o2)cn1)c1ccccc1` [Compound 11430, N-phenyl-N-((5-(5-(trifluoromethyl)-1,3,4-oxadiazol-2-yl)pyridin-2-yl)methyl)ethanesulfonamide], at human recombinant HDAC6, the “HDAC6 selectivity (fold)” value is given as 529 fold and the half-inhibitory concentration (IC50) came out at 42 nM. Also, the IC50 on human recombinant HDAC1 was 22200 nM.

As to `O=C(CO)N1CC(N2CCC(S(=O)(=O)N(Cc3ccc(-c4nnc(C(F)F)o4)cc3F)c3ccc(F)c(Cl)c3)CC2)C1` [Compound 11452, N-(3-chloro-4-fluorophenyl)-N-(4-(5-(difluoromethyl)-1,3,4-oxadiazol-2-yl)-2-fluorobenzyl)-1-(1-(2-hydroxyacetyl)azetidin-3-yl)piperidine-4-sulfonamide], the “HDAC6 selectivity (fold)” value at human recombinant HDAC6 worked out at 3439 fold. Further, the values for the concentration for half-maximal inhibition (IC50) at human recombinant HDAC6 and on human recombinant HDAC1 were 8 nM and 27500 nM, respectively.

For the origin of these results see patent US10538498B2, “1,3,4-oxadiazole sulfonamide derivative compounds as histone deacetylase 6 inhibitor, and the pharmaceutical composition comprising the same” (Chong Kun Dang Pharmaceutical Corp., priority 2015, dated 2020).
